Measured values reported in US6461997B1, “Triazole sulfones having herbicidal activity” (Monsanto Technology LLC, priority 1999, dated 2002).

Key:
[1] = system: SETVI (green foxtail); assay: Pre-emergence herbicidal activity, cool season; assay type: in vivo, Setaria viridis; details: GR80 = lowest tested rate (300, 100, 30, 10 g/ha) with 80% or greater inhibition; approx. 14 days after treating; 18/13° C.
How it was run: (§1)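 Seeds sown in sterilised fertilised topsoil received surface-applied compound in 50:50 acetone/water, typically at 300, 100, 30 and 10 g/ha, then greenhouse-grown at 30/21° C (warm-season species) or 18/13° C (cool-season species). Percent inhibition versus untreated plants was scored at about 14 days, giving GR80; an asterisk marks activity short of 80% at the top rate.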

[2] = system: AVEFA (wild oat); assay: Pre-plant incorporated (PPI) herbicidal activity, cool season; assay type: in vivo, Avena fatua; details: for PPI activity GR80, AVEFA: pre-plant incorporated, lowest tested rate with 80% or greater inhibition, about 14 days
Experimental: (§2) In another set of tests, the pre-plant incorporated (PPI) activity of compounds of this invention was evaluated on the same species as for the pre-emergence tests described above. In the PPI tests the following procedure, designed to simulate PPI application, was used.
(§3) A pre-prepared topsoil mixture (described above) was placed in a pot and compacted to a depth of 1.0 to 1.25 cm from the top of the pot. Seeds of each of several monocotyledonous and dicotyledonous annual plant species were placed on top of the soil. A sufficient quantity of soil to cover the seeds and level fill the pot was weighed into an open container. A known amount of the test compound was dissolved or suspended in an organic solvent and applied by spraying to this cover soil. The cover soil was thoroughly mixed to distribute the test compound throughout the cover soil, and was then applied as a cover layer over the seeds. Untreated soil was used as a cover layer for control pots. After treatment the plants were placed in a greenhouse where they received 0.64 cm of overhead irrigation. All subsequent watering consisted of a light overhead mist and/or subirrigation as needed for germination and growth. Tables 9 and 10 below relate to warm season plant species which were placed after pre-emergence treatment in a greenhouse with a 30/21° C. day/night temperature regime. Tables 11 and 12 below relates to cool season plant species placed after pre-emergence treatment in a greenhouse or growth chamber with an 18/13° C. day/night temperature regime. Only the compounds of Examples 1, 6, 8, 11, 13 and 15-20 were included in PPI tests.
(§4) Approximately 14 days after planting and treating, the plants were observed and herbicidal efficacy recorded as percent inhibition by comparison with untreated plants.

[3] = system: AGRRE (quackgrass (seedling)); assay: as above; assay type: in vivo, Elymus repens; details: for PPI activity GR80, AGRRE: pre-plant incorporated, lowest tested rate with 80% or greater inhibition, about 14 days
Experimental: as §2, §3, §4

[4] = system: LAMPU (purple deadnettle); assay: as above; assay type: in vivo, Lamium purpureum; details: for PPI activity GR80, LAMPU: pre-plant incorporated, lowest tested rate with 80% or greater inhibition, about 14 days
Experimental: as §2, §3, §4

[5] = system: XANST (cocklebur); assay: Pre-plant incorporated (PPI) herbicidal activity, warm season; assay type: in vivo, Xanthium strumarium; details: Xanthium strumarium, PPI application, read-out: Percent inhibition XANST
Experimental: as §2, §3, §4

[6] = system: ECHCG (barnyardgrass); assay: as above; assay type: in vivo, Echinochloa crus-galli; details: for inhibition at 10 g/ha / inhibition at 30 g/ha / inhibition at 100 g/ha / inhibition at 300 g/ha / inhibition at 900 g/ha: Echinochloa crus-galli, PPI application, read-out: Percent inhibition ECHCG; for PPI activity GR80, ECHCG: pre-plant incorporated, lowest tested rate with 80% or greater inhibition, about 14 days
Experimental: as §2, §3, §4

[7] = system: CHEAL (common lambsquarters); assay: as above; assay type: in vivo, Chenopodium album; details: pre-plant incorporated; GR80 = lowest tested rate with 80% or greater inhibition; approx. 14 days after treating; 30/21° C.
Experimental: as §2, §3, §4

[8] = system: wheat (TRZAW); assay: Selectivity test, PPI, cool season crop; assay type: in vivo, Triticum aestivum; details: Triticum aestivum, PPI application, read-out: Percent inhibition TRZAW
Experimental: as §3, §4
Additional pre-emergence and PPI tests were conducted by the procedures described above, on warm and cool season weed species in the presence of crop species, to assess herbicidal selectivity. Crop species included in warm season tests were corn (Zea mays, ZEAMX), rice (Oryza sativa, ORYSA) and soybean (Glycine max, GLYMX). Crop species included in cool season tests were wheat (Triticum aestivum, TRZAW), barley (Hordeunm vulgare, HORVX) and oilseed rape (Brassica napus, BRSNS).
Tables 15 and 16 relate to pre-emergence and PPI tests respectively on warm season species. Table 17 relates to pre-emergence tests on cool season species.

[9] = system: AMARE (redroot pigweed); assay: Pre-emergence herbicidal activity, warm season; assay type: in vivo, Amaranthus retroflexus; details: for inhibition at 10 g/ha / inhibition at 30 g/ha / inhibition at 100 g/ha / inhibition at 300 g/ha / inhibition at 900 g/ha: Amaranthus retroflexus, pre-emergence application, read-out: Percent inhibition, weed AMARE; for Pre-emergence activity (GR80) AMARE: GR80 = lowest tested rate (300, 100, 30, 10 g/ha) with 80% or greater inhibition, approx. 14 days after treating, 30/21° C.
How it was run: as §1

[10] = system: AMARE (redroot pigweed); assay: Pre-plant incorporated (PPI) herbicidal activity, warm season; assay type: in vivo, Amaranthus retroflexus; details: for inhibition at 10 g/ha / inhibition at 30 g/ha / inhibition at 100 g/ha / inhibition at 300 g/ha / inhibition at 900 g/ha: Amaranthus retroflexus, PPI application, read-out: Percent inhibition AMARE; for PPI activity (GR80) AMARE: pre-plant incorporated, GR80 = lowest tested rate with 80% or greater inhibition, approx. 14 days after treating, 30/21° C.
Experimental: as §2, §3, §4

CCN(CC)C(=O)n1cnc(S(=O)(=O)C(F)(F)Br)n1 [Example 1, 3-(bromodifluoromethylsulfonyl)-1-(N,N-diethylcarbamoyl)-1,2,4-triazole]
Pre-emergence activity (GR80) SETVI [1]: 30 g/ha | inhibition at 30 g/ha ([2]; Avena fatua, weed, PPI application, 30 g/ha, read-out: Percent inhibition AVEFA): 0% | inhibition at 100 g/ha ([2]; Avena fatua, weed, PPI application, 100 g/ha, read-out: Percent inhibition AVEFA): 20% | inhibition at 300 g/ha ([2]; Avena fatua, weed, PPI application, 300 g/ha, read-out: Percent inhibition AVEFA): 95% | inhibition at 900 g/ha ([2]; Avena fatua, weed, PPI application, 900 g/ha, read-out: Percent inhibition AVEFA): 90% | PPI activity GR80, AVEFA [2]: 300 g/ha | inhibition at 30 g/ha ([3]; Elymus repens, weed, PPI application, 30 g/ha, read-out: Percent inhibition AGRRE): 0% | inhibition at 100 g/ha ([3]; Elymus repens, weed, PPI application, 100 g/ha, read-out: Percent inhibition AGRRE): 20% | inhibition at 300 g/ha ([3]; Elymus repens, weed, PPI application, 300 g/ha, read-out: Percent inhibition AGRRE): 60% | inhibition at 900 g/ha ([3]; Elymus repens, weed, PPI application, 900 g/ha, read-out: Percent inhibition AGRRE): 95% | PPI activity GR80, AGRRE [3]: * (activity observed, at least at highest rate, but <80% inhibition) | inhibition at 30 g/ha ([4]; Lamium purpureum, weed, PPI application, 30 g/ha, read-out: Percent inhibition LAMPU): 80% | inhibition at 100 g/ha ([4]; Lamium purpureum, weed, PPI application, 100 g/ha, read-out: Percent inhibition LAMPU): 70% | inhibition at 300 g/ha ([4]; Lamium purpureum, weed, PPI application, 300 g/ha, read-out: Percent inhibition LAMPU): 95% | inhibition at 900 g/ha ([4]; Lamium purpureum, weed, PPI application, 900 g/ha, read-out: Percent inhibition LAMPU): 100% | PPI activity GR80, LAMPU [4]: 100 g/ha | inhibition at 10 g/ha [5]: 0% | inhibition at 30 g/ha [5]: 0% | inhibition at 100 g/ha [5]: 0% | inhibition at 300 g/ha [5]: 0% | inhibition at 900 g/ha ([5]; 900 g/ha): 0% | inhibition at 10 g/ha [6]: 0% | inhibition at 30 g/ha [6]: 20% | inhibition at 100 g/ha [6]: 99% | inhibition at 300 g/ha [6]: 100% | inhibition at 900 g/ha [6]: 100% | PPI activity GR80, ECHCG [6]: 30 g/ha | PPI activity (GR80) CHEAL [7]: 300 g/ha | inhibition at 30 g/ha ([8]; 30 g/ha): 0% | inhibition at 100 g/ha ([8]; 100 g/ha): 0% | inhibition at 300 g/ha ([8]; 300 g/ha): 10% | inhibition at 900 g/ha ([8]; 900 g/ha): 30% | inhibition at 10 g/ha [9]: 0% | inhibition at 30 g/ha [9]: 0% | inhibition at 100 g/ha [9]: 60% | inhibition at 300 g/ha [9]: 50% | inhibition at 900 g/ha [9]: 90% | Pre-emergence activity (GR80) AMARE [9]: 30 g/ha | inhibition at 10 g/ha [10]: 0% | inhibition at 30 g/ha [10]: 60% | inhibition at 100 g/ha [10]: 80% | inhibition at 300 g/ha [10]: 100% | inhibition at 900 g/ha [10]: 100% | PPI activity (GR80) AMARE [10]: 30 g/ha

CCN(CC)C(=O)n1cnc(S(=O)(=O)C(F)F)n1 [Example 15, 1-(N,N-diethylcarbamoyl)-3-(difluoromethylsulfonyl)-1,2,4-triazole]
PPI activity GR80, AVEFA [2]: 300 g/ha | PPI activity GR80, AGRRE [3]: 300 g/ha | PPI activity GR80, LAMPU [4]: 300 g/ha | inhibition at 10 g/ha [5]: 0% | inhibition at 30 g/ha [5]: 0% | inhibition at 100 g/ha [5]: 0% | inhibition at 300 g/ha [5]: 0% | inhibition at 10 g/ha [6]: 10% | inhibition at 30 g/ha [6]: 50% | inhibition at 100 g/ha [6]: 90% | inhibition at 300 g/ha [6]: 100% | inhibition at 900 g/ha [6]: 90% | PPI activity GR80, ECHCG [6]: 100 g/ha | PPI activity (GR80) CHEAL [7]: 100 g/ha | inhibition at 10 g/ha [9]: 0% | inhibition at 30 g/ha [9]: 0% | inhibition at 100 g/ha [9]: 0% | inhibition at 300 g/ha [9]: 40% | inhibition at 900 g/ha [9]: 95% | Pre-emergence activity (GR80) AMARE [9]: 30 g/ha | inhibition at 10 g/ha [10]: 20% | inhibition at 30 g/ha [10]: 100% | inhibition at 100 g/ha [10]: 80% | inhibition at 300 g/ha [10]: 100% | inhibition at 900 g/ha [10]: 100% | PPI activity (GR80) AMARE [10]: 100 g/ha
